What all share (format): cell-based, human
One assay concerns MYB. Briefly: HiBiT protein abundance assay, MYB HiBiT K562 cell line. The following applies: HiBiT K562 cell line, 24 hours, top dose 10 μM; read-out: Effect on protein abundance, MYB (IC50 category). The method, boiled down:
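Endogenous targets in K562 knock-in lines carried a HiBiT tag and were treated for 24 h at 37 °C with 10-point 3-fold dilutions (top 10 μM final, DMSO ≤0.25%). Abundance was read as lytic Nano-Glo HiBiT luminescence. IC50 came from a four-parameter logistic fit of normalized response.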

Assay [1] concerns Target C. Description: RT-qPCR splicing assay panel, Target C canonical junction (CJ) mRNA. The following applies: Homo sapiens; Table 5 panel; canonical junction qPCR; compound concentration having 50% response in CJ decrease; read-out: Target C IC50 (decrease in CJ mRNA levels). The method, boiled down:
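A673 or K562 cells were treated for 24 h at 37 °C with compound in 11-point 3-fold dilution (top 10 uM final, DMSO ≤0.25%). Lysates then went to one-step RT-qPCR measuring canonical-junction mRNA, normalized to GAPDH, GUSB or PPIA.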
(In general: Real-time PCR tracks product formation cycle by cycle.)

The test system of assay [2] is Target C. Briefly: HiBiT protein abundance assay, Target C (Promega Nano-Glo HiBiT Lytic Detection System, knock-in K562 cell line). Particulars: Homo sapiens, K562, 24 h, HiBiT K562 cell line, 24 hours, top dose 10 μM; read-out: Effect on protein abundance, Target C (IC50 category). The method, boiled down: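 HiBiT knock-in K562 cells (10,000/well) were treated for 24 h at 37 °C with a 10-point 3-fold dilution series, top final concentration 10 μM, DMSO ≤0.25%. Lytic HiBiT luminescence was read, normalized to unmodified K562 and DMSO-treated controls, and IC50 was interpolated from a four-parameter logistic fit.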

A value given as a limit tells only on which side of the number the result lay.

As a reminder, the IC50 is the point on the concentration scale where inhibition reaches its midpoint. With `Cc1cn2nc(-c3ccc4c(=O)n(C5CCCNC5)ccc4c3)cc(C)c2n1` (stereo in doubt) [Compound 410, 6-{2,8-dimethylimidazo[1,2-b]pyridazin-6-yl}-2-[(3S)-piperidin-3-yl]isoquinolin-1-one], the half-inhibitory concentration (IC50) in the assay with MYB was 0.1 to 1 µM; in the assay with Target C [1], above 10 µM; in the assay on Target C [2], 1 to 10 µM.

Regarding `Cc1cn2nc(-c3ccc4c(=O)n(C5CCCNC5)ccc4c3)cc(C)c2n1` (stereo in doubt) [Compound 411, 6-{2,8-dimethylimidazo[1,2-b]pyridazin-6-yl}-2-[(3R)-piperidin-3-yl]isoquinolin-1-one], the 50% inhibitory concentration (IC50) in the assay with MYB is 1 to 10 µM; with Target C [1], above 10 µM; in the assay with Target C [2] it was 1 to 10 µM.

For `Cc1cn2cc(-c3cc(F)c4c(=O)n(C5CCOC5)cnc4c3)cc(C#N)c2n1` (stereo in doubt) [Compound 499, (R)-6-(5-fluoro-4-oxo-3-(tetrahydrofuran-3-yl)-3,4-dihydroquinazolin-7-yl)-2-methylimidazo[1,2-a]pyridine-8-carbonitrile], the IC50 with MYB, in the assay with Target C [1] and with Target C [2] was 0.1 to 1 µM throughout.

For the molecule `Cc1cn2cc(-c3cc(F)c4c(=O)n(C5CCOC5)cnc4c3)cc(C#N)c2n1` (stereo in doubt) [Compound 500, (S)-6-(5-fluoro-4-oxo-3-(tetrahydrofuran-3-yl)-3,4-dihydroquinazolin-7-yl)-2-methylimidazo[1,2-a]pyridine-8-carbonitrile], the IC50 with MYB, with Target C [1] and in the assay on Target C [2] was 0.1 to 1 µM each time.

Consider `Cn1cc2cc(-n3cnc4cc(C5=CC6CCC(C5)N6)ccc4c3=O)ccc2n1` (stereo not drawn) [Compound 160], for which the IC50 with MYB, in the assay on Target C [1] and with Target C [2] was above 10 µM each time.

Take `CN1C2C=C(c3ccc4c(=O)n(-c5ccc6nn(C)cc6c5)cnc4c3)CC1CC2` (stereo not drawn) [Compound 161]: the IC50 with MYB, in the assay on Target C [1] and in the assay with Target C [2] was above 10 µM throughout.

For `CN1CCC(Nc2ccc3c(=O)n(-c4ccc5nn(C)cc5c4)cnc3c2)CC1` [Compound 163], the 50% inhibitory concentration (IC50) in the assay with MYB, with Target C [1] and in the assay on Target C [2] was above 10 µM throughout.

On to `Cn1cc2cc(-n3cnc4cc(C5CCNCC5)ccc4c3=O)ccc2n1` [Compound 172], for which the concentration for half-maximal inhibition (IC50) in the assay on MYB, in the assay on Target C [1] and in the assay on Target C [2] was above 10 µM throughout.

`Cc1cn2cc(-c3cc(N)c4c(=O)n(C5CCNCC5)cnc4c3)cc(C#N)c2n1` [Compound 364, 6-[5-amino-4-oxo-3-(piperidin-4-yl)quinazolin-7-yl]-2-methylimidazo[1,2-a]pyridine-8-carbonitrile]: the IC50 in the assay with MYB, in the assay on Target C [1] and in the assay on Target C [2] was above 10 µM in each case.

Regarding `Cn1cc2c(n1)CCN(c1cc(F)c3c(=O)n(C4CCNCC4)cnc3c1)C2` [Compound 365, 5-fluoro-7-(2-methyl-2,4,6,7-tetrahydro-5H-pyrazolo[4,3-c]pyridin-5-yl)-3-(piperidin-4-yl)quinazolin-4(3H)-one], the 50% inhibitory concentration (IC50) with MYB is 1 to 10 µM; with Target C [1], above 10 µM; in the assay on Target C [2], above 10 µM.

Regarding `Cc1cn2cc(-c3cc(F)c4c(=O)n(C5CCOC5)cnc4c3)cc(C#N)c2n1` (stereo not drawn) [Compound 366, 6-[5-fluoro-4-oxo-3-(oxolan-3-yl)quinazolin-7-yl]-2-methylimidazo[1,2-a]pyridine-8-carbonitrile], the IC50 with MYB, in the assay with Target C [1] and in the assay on Target C [2] was 1 to 10 µM each time.

On to `Cc1cn2cc(-c3cc(F)c4c(=O)n(C5CCOCC5)cnc4c3)cc(C#N)c2n1` [Compound 367, 6-[5-fluoro-3-(oxan-4-yl)-4-oxoquinazolin-7-yl]-2-methylimidazo[1,2-a]pyridine-8-carbonitrile], for which the IC50 in the assay on MYB, in the assay on Target C [1] and in the assay with Target C [2] was 0.1 to 1 µM in each case.

On to `Cc1cn2nc(-c3ccc4c(=O)n([C@H]5CCNC6(CC6)C5)ncc4c3)cc(C)c2n1` [Compound 369, 2-[(7S)-4-azaspiro[2.5]octan-7-yl]-6-{2,8-dimethylimidazo[1,2-b]pyridazin-6-yl}phthalazin-1-one], for which the IC50 in the assay with MYB is 1 to 10 µM; in the assay with Target C [1] it was below 0.1 µM; with Target C [2], 1 to 10 µM.

For the molecule `Cc1cn2cc(-c3cc(F)c4c(=O)n(C5CCNCC5)ccc4c3)cc(F)c2n1` [Compound 370], the concentration for half-maximal inhibition (IC50) in the assay with MYB is below 0.1 µM; in the assay on Target C [1], 0.1 to 1 µM; with Target C [2], below 0.1 µM.

Regarding `Cc1cn2nc(-c3ccc4c(=O)n([C@H]5CCNC[C@H]5F)cnc4c3)cc(C)c2n1` [Compound 372], the results for the IC50 in the assay on MYB, with Target C [1] and with Target C [2] were 0.1 to 1 µM, 1 to 10 µM and 1 to 10 µM, respectively.

Take `Cc1cc(-c2ccc3c(=O)n(C4CCNC5(COC5)C4)cnc3c2)cc2cn(C)nc12` (stereo not drawn) [Compound 375]: the IC50 in the assay with MYB, in the assay with Target C [1] and in the assay on Target C [2] was 1 to 10 µM each time.

In the case of `Cc1cc(-c2ccc3c(=O)n([C@@H]4CCNC[C@H]4F)ncc3c2)cc2cn(C)nc12` [Compound 378], the half-maximal inhibitory concentration (IC50) with MYB, in the assay with Target C [1] and with Target C [2] was 1 to 10 µM in each case.

`Cc1cn2nc(-c3ccc4c(=O)n([C@@H]5CCNC[C@H]5F)ncc4c3)cc(C)c2n1` [Compound 379]: the IC50 in the assay with MYB fell in the range of 0.1 to 1 µM; with Target C [1] it was 1 to 10 µM; in the assay with Target C [2], 0.1 to 1 µM.

Consider `Cc1cn2nc(-c3cc(F)c4c(=O)n(C5CCNC6(CC6)C5)ccc4c3)cc(C)c2n1` (stereo not drawn) [Compound 380, 6-(2,8-dimethylimidazo[1,2-b]pyridazin-6-yl)-8-fluoro-2-(4-azaspiro[2.5]octan-7-yl)isoquinolin-1(2H)-one], for which the IC50 with MYB, in the assay with Target C [1] and in the assay on Target C [2] was below 0.1 µM throughout.

In the case of `Cc1cn2nc(-c3ccc4c(=O)n(C5CCNCC5)cc(C)c4c3)cc(C)c2n1` [Compound 381, 6-{2,8-dimethylimidazo[1,2-b]pyridazin-6-yl}-4-methyl-2-(piperidin-4-yl)isoquinolin-1-one], the IC50 with MYB is below 0.1 µM; in the assay on Target C [1] it was 1 to 10 µM; in the assay on Target C [2], 0.1 to 1 µM.

For the molecule `Cc1cn2cc(-c3cc(F)c4c(=O)n(C5CCNCC5)ccc4c3)cc(C#N)c2n1` [Compound 383, 6-[8-fluoro-1-oxo-2-(piperidin-4-yl)isoquinolin-6-yl]-2-methylimidazo[1,2-a]pyridine-8-carbonitrile], the IC50 is below 0.1 µM in the assay on MYB, 1 to 10 µM in the assay with Target C [1] and 0.1 to 1 µM in the assay on Target C [2].

As for `Cc1cn2nc(-c3ccc4c(=O)n(C5CCNC6(CC6)C5)ccc4c3)cc(C)c2n1` (stereo not drawn) [Compound 384], the IC50 is below 0.1 µM in the assay on MYB, 0.1 to 1 µM in the assay on Target C [1] and below 0.1 µM in the assay with Target C [2].

For the molecule `Cc1cn2nc(-c3cc(C#N)c4c(=O)n(C5CCNC6(CC6)C5)ccc4c3)cc(C)c2n1` (stereo not drawn) [Compound 387], the 50% inhibitory concentration (IC50) was below 0.1 µM in the assay with MYB, 0.1 to 1 µM in the assay with Target C [1] and below 0.1 µM with Target C [2].

For `Cc1cn2nc(-c3cc(Cl)c4c(=O)n(C5CCNCC5)ccc4c3)cc(C)c2n1` [Compound 390, 8-chloro-6-{2,8-dimethylimidazo[1,2-b]pyridazin-6-yl}-2-(piperidin-4-yl)isoquinolin-1-one; trifluoroacetaldehyde], the IC50 with MYB, in the assay on Target C [1] and with Target C [2] was below 0.1 µM throughout.

Take `Cc1cn2nc(-c3cc(O)c4c(=O)n(C5CCNCC5)ccc4c3)cc(C)c2n1` [Compound 391, 6-(2,8-dimethylimidazo[1,2-b]pyridazin-6-yl)-8-hydroxy-2-(piperidin-4-yl)isoquinolin-1(2H)-one]: the 50% inhibitory concentration (IC50) with MYB, with Target C [1] and in the assay on Target C [2] was below 0.1 µM throughout.

As for `CC(=O)c1cc(-c2cc(F)c3c(=O)n(C4CCNCC4)ccc3c2)cn2cc(C)nc12` [Compound 393, 6-{8-acetyl-2-methylimidazo[1,2-a]pyridin-6-yl}-8-fluoro-2-(piperidin-4-yl)isoquinolin-1-one 2,2,2-trifluoroacetate], the concentration for half-maximal inhibition (IC50) was below 0.1 µM in the assay on MYB, 1 to 10 µM with Target C [1] and 0.1 to 1 µM with Target C [2].

For the molecule `Cn1cc2cc(-c3cc(F)c4c(=O)n(C5CCNCC5)ccc4c3)cc(C#N)c2n1` [Compound 394, 5-(8-fluoro-1-oxo-2-(piperidin-4-yl)-1,2-dihydroisoquinolin-6-yl)-2-methyl-2H-indazole-7-carbonitrile], the IC50 was below 0.1 µM in the assay with MYB, 0.1 to 1 µM with Target C [1] and below 0.1 µM with Target C [2].

For the molecule `COc1cc(-c2cc(C)c3nc(C)cn3n2)cc2ccn(C3CCNCC3)c(=O)c12` [Compound 399, 6-{2,8-dimethylimidazo[1,2-b]pyridazin-6-yl}-8-methoxy-2-(piperidin-4-yl)isoquinolin-1-one], the IC50 is 0.1 to 1 µM in the assay with MYB, 1 to 10 µM in the assay with Target C [1] and 0.1 to 1 µM in the assay with Target C [2].

For the molecule `Cc1cn2nc(-c3cc(F)c4c(=O)n(C5CCN(C)CC5)ccc4c3)cc(C)c2n1` [Compound 400, 6-(2,8-dimethylimidazo[1,2-b]pyridazin-6-yl)-8-fluoro-2-(1-methylpiperidin-4-yl)isoquinolin-1(2H)-one], the IC50 is below 0.1 µM in the assay on MYB, 0.1 to 1 µM in the assay on Target C [1] and below 0.1 µM in the assay on Target C [2].

Source of the values: patent US20250332173A1, “COMPOUNDS AND METHODS FOR MODULATING NUCLEIC ACID SPLICING” (REMIX THERAPEUTICS INC., priority 2021, published 2025).
